In BindingDB's records for doi:10.1021/cb700166z (Albert Einstein College of Medicine, 2007):
“And” between values parts separate entries of the source, which are not always exact repeats. Identical values can stand only once.

Legend:
Assay in all cases: Enzyme Activity Assay
Conditions in all cases: pH 7.5; 25 °C
[1] = biological target: T1, S-methyl-5'-thioadenosine phosphorylase (Homo sapiens, UniProt Q13126)
T1 sequence (Q13126 whole entry): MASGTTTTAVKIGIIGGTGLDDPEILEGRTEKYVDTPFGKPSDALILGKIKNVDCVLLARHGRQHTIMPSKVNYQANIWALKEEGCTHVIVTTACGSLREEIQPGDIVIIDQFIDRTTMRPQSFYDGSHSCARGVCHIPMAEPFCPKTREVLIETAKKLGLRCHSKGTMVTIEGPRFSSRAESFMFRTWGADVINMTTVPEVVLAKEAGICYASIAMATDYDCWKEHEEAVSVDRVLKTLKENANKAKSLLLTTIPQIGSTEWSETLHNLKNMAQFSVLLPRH
From the text: (§1) Enzyme activity assay using various bacterial species of 5'-Methylthioadenosine nucleosidases (MTANs) excepted for MTAP, for human MTAP.

[2] = biological target: 5'-methylthioadenosine/S-adenosylhomocysteine nucleosidase (Escherichia coli (strain K12), UniProt P0AF12)
From the text: as §1

[3] = biological target: T2, 5'-methylthioadenosine/S-adenosylhomocysteine nucleosidase (Staphylococcus aureus (strain COL), UniProt Q5HFG2)
T2 sequence (Q5HFG2 whole entry): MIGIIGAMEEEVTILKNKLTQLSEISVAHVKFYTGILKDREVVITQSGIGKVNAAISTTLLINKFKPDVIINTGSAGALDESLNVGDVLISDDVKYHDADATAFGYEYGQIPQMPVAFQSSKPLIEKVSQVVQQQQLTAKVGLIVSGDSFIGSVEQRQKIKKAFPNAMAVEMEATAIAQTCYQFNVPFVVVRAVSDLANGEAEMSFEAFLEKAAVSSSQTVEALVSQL
From the text: as §1

[4] = biological target: T3, 5'-methylthioadenosine/S-adenosylhomocysteine nucleosidase (Neisseria meningitidis (strain alpha14), UniProt C6S634)
T3 sequence (C6S634 whole entry): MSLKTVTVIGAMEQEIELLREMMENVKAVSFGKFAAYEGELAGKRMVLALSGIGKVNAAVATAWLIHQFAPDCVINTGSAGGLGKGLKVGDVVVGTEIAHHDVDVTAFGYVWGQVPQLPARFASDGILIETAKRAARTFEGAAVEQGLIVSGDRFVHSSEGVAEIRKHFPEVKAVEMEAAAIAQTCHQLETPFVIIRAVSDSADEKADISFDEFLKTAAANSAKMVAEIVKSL
From the text: as §1

[5] = biological target: T4, Aminodeoxyfutalosine nucleosidase (Helicobacter pylori (strain ATCC 700392 / 26695), UniProt O24915)
T4 sequence (O24915 whole entry): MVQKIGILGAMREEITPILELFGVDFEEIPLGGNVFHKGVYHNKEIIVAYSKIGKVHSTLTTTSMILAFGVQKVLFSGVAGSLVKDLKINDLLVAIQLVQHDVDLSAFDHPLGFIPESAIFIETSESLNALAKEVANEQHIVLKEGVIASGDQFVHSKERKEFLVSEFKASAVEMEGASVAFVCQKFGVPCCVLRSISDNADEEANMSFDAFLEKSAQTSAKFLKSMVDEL
From the text: as §1

[6] = biological target: 5'-methylthioadenosine/S-adenosylhomocysteine nucleosidase (Klebsiella pneumoniae (strain 342), UniProt B5Y1L0)
From the text: as §1

[7] = biological target: T5, Adenosylhomocysteine nucleosidase (Streptococcus pneumoniae (strain ATCC BAA-255 / R6), UniProt Q8DQ16)
T5 sequence (Q8DQ16 whole entry): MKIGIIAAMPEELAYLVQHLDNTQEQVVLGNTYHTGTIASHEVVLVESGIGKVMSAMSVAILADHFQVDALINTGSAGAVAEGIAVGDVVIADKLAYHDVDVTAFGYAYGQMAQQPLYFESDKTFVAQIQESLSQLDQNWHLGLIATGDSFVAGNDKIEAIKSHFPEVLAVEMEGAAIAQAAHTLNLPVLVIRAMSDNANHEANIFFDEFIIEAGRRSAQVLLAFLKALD
From the text: as §1

Chain of 5'-methylthioadenosine/S-adenosylhomocysteine nucleosidase (Klebsiella pneumoniae (strain 342), UniProt B5Y1L0) (B5Y1L0 whole entry): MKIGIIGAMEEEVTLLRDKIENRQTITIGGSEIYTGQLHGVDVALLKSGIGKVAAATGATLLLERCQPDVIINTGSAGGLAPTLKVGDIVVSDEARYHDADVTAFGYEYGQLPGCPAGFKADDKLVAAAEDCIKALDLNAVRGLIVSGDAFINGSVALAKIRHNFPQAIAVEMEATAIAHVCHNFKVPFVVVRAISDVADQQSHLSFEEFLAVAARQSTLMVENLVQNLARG
Chain of 5'-methylthioadenosine/S-adenosylhomocysteine nucleosidase (Escherichia coli (strain K12), UniProt P0AF12) (P0AF12 whole entry): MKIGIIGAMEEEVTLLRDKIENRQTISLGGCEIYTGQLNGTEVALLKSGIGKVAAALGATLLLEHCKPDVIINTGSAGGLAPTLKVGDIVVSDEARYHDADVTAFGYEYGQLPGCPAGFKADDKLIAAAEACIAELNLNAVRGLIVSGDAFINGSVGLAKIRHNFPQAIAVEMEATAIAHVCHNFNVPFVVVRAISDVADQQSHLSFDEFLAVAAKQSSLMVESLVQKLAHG

SMILES | Kd [1] | Kd [2] | Kd [3] | Kd [4] | Kd [5] | Kd [6] | Kd [7]
Nc1ncnc2c(C3NC(CSCc4ccccc4)C(O)C3O)c[nH]c12 (stereo unspecified) | 26 nM | 0.027 nM | 12 nM | 0.17 nM | 200 nM | 13 nM | 210 nM
Nc1ncnc2c(C3NC(CSc4ccc(Cl)cc4)C(O)C3O)c[nH]c12 (stereo unspecified) | 0.166 nM | 0.002 nM | 53 nM | 0.063 nM | 40 nM | 4.1 nM | 190 nM
CSC[C@H]1CN(Cc2c[nH]c3c(N)ncnc23)C[C@@H]1O [DADMe-ImmA-Me] | 0.086 nM and 0.034 nM | – | 1.4 nM | 0.14 nM | 0.571 nM | 0.784 nM | 24 nM
CSCC1NC(c2c[nH]c3c(N)ncnc23)C(O)C1O (stereo unspecified) [2-(4-Amino-5H-pyrrolo[3,2-d]pyrimidin-7-yl)-3,4-dihydroxy-5-methylsulfanylmethyl-pyrrolidinium] | 1 nM | 0.077 nM | 77 nM | 0.36 nM | 1.2 nM | 45 nM | 1000 nM
CCSCC1NC(c2c[nH]c3c(N)ncnc23)C(O)C1O (stereo unspecified) | 0.266 nM | 0.012 nM | 12 nM | 0.12 nM | 3.4 nM | 13 nM | 40 nM
Nc1ncnc2c(CN3CC(O)C(CSCc4ccccc4)C3)c[nH]c12 (stereo unspecified) | 0.7 nM | – | 0.841 nM | 0.024 nM | 200 nM | 1.9 nM | 2.4 nM
CCSC[C@H]1CN(Cc2c[nH]c3c(N)ncnc23)C[C@@H]1O [DADMe-ImmA-Et] | – | – | 1.3 nM | 0.046 nM | 0.515 nM | 2.2 nM | 10 nM
Nc1ncnc2c(CN3CC(O)C(CSc4ccc(Cl)cc4)C3)c[nH]c12 (stereo unspecified) [DADMe-ImmA-p-ClPh] | 0.01 nM | – | 8 nM | 0.021 nM | 0.57 nM | 0.5 nM | 0.36 nM
